biological target: T1, Trp-p8 (Homo sapiens, UniProt Q7Z2W7, T58I); assay: Cell viability (ATP) assay for Trp-p8 antagonists: protection of CHO/Trp-p8 cells from toxic control agonist D-1607; type: cell-based; settings: Table 2, Formula VIII antagonists; 10 μM compound plus toxic concentration of control agonist D-1607, CHO/Trp-p8 cells, 37° C.; ATP level relative to DMSO
T1 construct: expressed in transfected cells
Protocol: FIG. 4 is a graph depicting exemplary results from a primary screen for Trp-p8 antagonists using the ATP viability assay, described herein, with CHO/Trp-p8 cells at 37° C. CHO/Trp-p8 cells were exposed to compounds, at different concentrations, in 1% DMSO or 1% DMSO in combination with a toxic concentration of the Trp-p8 agonist 1607. The viability of cells was measured after 24-26 hours at 37° C. using the ATP assay.
As a primary screen for efficacy and specificity for agonists, both the non-transfected CHO and CHO/Trp-p8 cells were exposed to 10 μM of test compounds in 1% dimethylsulfoxide (DMSO) or 1% DMSO (control) in a 96-well black walled, black-bottomed, cell-culture treated plate. DMSO was the solvent for all of the compounds tested. After 24-26 hours at 37° C., the cells were lysed and ATP concentration determined via a chemiluminescence assay using a commercially available reagent kit—Cell Titer-Glo (Promega; Madison, Wis.). […] (EC50 is defined herein as the agonist concentration at which there is a 50% reduction in cell viability).
Trp-p8 antagonists were identified by employing a cell viability assay with CHO/Trp-p8 cells at 37° C. (see Example 7) with the following modification. Within the context of the present invention, compounds that protect CHO/Trp-p8 cells from the toxic effect of a control agonist thereby maintaining the viability of the CHO/Trp-p8 cell exposed to a Trp-p8 agonist is defined as antagonist. As a primary screen for antagonists, CHO/Trp-p8 cells were exposed to 10 μM of test compounds in 1% dimethylsulfoxide (DMSO) or 1% DMSO plus a toxic concentration of a control agonist, D-1607.

T1 sequence (Q7Z2W7 whole entry T58I): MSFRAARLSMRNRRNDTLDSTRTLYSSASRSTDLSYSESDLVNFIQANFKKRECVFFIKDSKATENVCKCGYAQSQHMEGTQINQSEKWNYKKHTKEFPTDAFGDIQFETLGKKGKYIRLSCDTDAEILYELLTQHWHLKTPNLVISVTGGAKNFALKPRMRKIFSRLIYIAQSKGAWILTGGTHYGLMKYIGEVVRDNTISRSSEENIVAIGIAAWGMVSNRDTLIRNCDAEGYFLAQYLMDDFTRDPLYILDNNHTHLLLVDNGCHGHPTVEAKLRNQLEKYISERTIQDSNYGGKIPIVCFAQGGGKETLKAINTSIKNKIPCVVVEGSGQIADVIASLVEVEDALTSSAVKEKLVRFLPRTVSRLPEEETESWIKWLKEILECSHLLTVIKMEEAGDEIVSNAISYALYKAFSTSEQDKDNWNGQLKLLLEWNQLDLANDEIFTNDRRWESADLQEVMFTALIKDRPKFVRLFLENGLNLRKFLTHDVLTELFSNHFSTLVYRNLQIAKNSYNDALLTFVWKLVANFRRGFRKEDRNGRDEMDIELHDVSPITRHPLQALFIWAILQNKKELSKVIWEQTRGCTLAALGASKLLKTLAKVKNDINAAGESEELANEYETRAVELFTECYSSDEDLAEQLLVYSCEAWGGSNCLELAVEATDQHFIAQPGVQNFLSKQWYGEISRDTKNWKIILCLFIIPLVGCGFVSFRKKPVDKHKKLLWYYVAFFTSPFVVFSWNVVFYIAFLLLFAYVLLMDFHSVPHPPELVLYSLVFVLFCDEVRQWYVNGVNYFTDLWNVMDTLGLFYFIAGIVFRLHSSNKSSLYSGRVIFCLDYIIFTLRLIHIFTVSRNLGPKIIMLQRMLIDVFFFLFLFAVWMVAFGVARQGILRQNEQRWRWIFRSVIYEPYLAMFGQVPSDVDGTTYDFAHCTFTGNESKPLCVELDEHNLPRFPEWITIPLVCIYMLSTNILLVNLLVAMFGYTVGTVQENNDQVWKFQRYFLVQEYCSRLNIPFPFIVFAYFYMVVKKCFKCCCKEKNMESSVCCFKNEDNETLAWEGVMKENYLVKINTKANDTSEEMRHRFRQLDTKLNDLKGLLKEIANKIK

| SMILES | Relative Viability (%) at 10 μM [%] |
| --- | --- |
| Cc1ccc(O)c(CN[C@@H]2C[C@H](C)CC[C@H]2C(C)C)c1 [compound 2710] | 70 |
| COc1ccccc1CNC(=O)CO[C@@H]1C[C@H](C)CC[C@H]1C(C)C [compound 1673] | 112 |
| CCCC1c2cccn2CCC1C(=O)N[C@@H]1C[C@H](C)CC[C@H]1C(C)C (stereo partly shown) [compound 1838] | 88 |
| CCCc1c(C(=O)N[C@@H]2C[C@H](C)CC[C@H]2C(C)C)cnn1-c1ccccc1 [compound 2067] | 105 |
| CC(C)[C@@H]1CC[C@@H](C)C[C@H]1NC(=O)SCc1ccccc1Cl [compound 2306] | 92 |
| CCCCOc1ccc(C(=O)N[C@@H]2C[C@H](C)CC[C@H]2C(C)C)cc1 [compound 2044] | 94 |
| CC(C)[C@@H]1CC[C@@H](C)C[C@H]1OCC(=O)NCCC1=CCCCC1 [compound 1743] | 97 |
| CC(C)[C@@H]1CC[C@@H](C)C[C@H]1OCC(=O)NCCc1cccs1 [compound 1925] | 94 |
| COc1ccc(C2c3[nH]c4ccccc4c3CCN2C(=O)[C@@H]2C[C@H](C)CC[C@H]2C(C)C)cc1CN1CCc2cc(OC)c(OC)cc2C1C (stereo partly shown) [compound 2676] | 83 |
| CCCC1c2cccn2CCN1C(=O)O[C@@H]1C[C@H](C)CC[C@H]1C(C)C (stereo partly shown) [compound 1941] | 98 |
| CC(C)[C@@H]1CC[C@@H](C)C[C@H]1NS(=O)(=O)c1cc(Br)c(Br)s1 [compound 2134] | 63 |
| CC(C)[C@@H]1CC[C@@H](C)C[C@H]1OCC(=O)N1CCn2cccc2C1C (stereo partly shown) [compound 1918] | 94 |
| CC(C)[C@@H]1CC[C@@H](C)C[C@H]1NC(=O)[C@@]12CC[C@@](C)(C(=O)O1)C2(C)C [compound 2046] | 89 |
| CC(C)[C@@H]1CC[C@@H](C)C[C@H]1NC(=O)N1CCc2ccccc2C1 [compound 1819] | 86 |
| CC(C)[C@@H]1CC[C@@H](C)C[C@H]1OCC(=O)N1c2ccccc2CC1C (stereo partly shown) [compound 1691] | 92 |
| CCCCOc1ccc(-c2n[nH]cc2CN[C@@H]2C[C@H](C)CC[C@H]2C(C)C)cc1 [compound 2777] | 83 |
| CC(C)[C@@H]1CC[C@@H](C)C[C@H]1OCC(=O)N1CCCc2ccccc21 [compound 1696] | 82 |
| CC(NC(=O)CO[C@@H]1C[C@H](C)CC[C@H]1C(C)C)c1ccccc1 (stereo partly shown) [compound 1664] | 107 |
| CC(C)[C@@H]1CC[C@@H](C)C[C@H]1OCC(=O)N1CCc2ccccc2C1 [compound 1688] | 91 |
| CC(C)[C@@H]1CC[C@@H](C)C[C@H]1OC(=O)N1CCn2cccc2C1C (stereo partly shown) [compound 1940] | 110 |
| CC(C)[C@@H]1CC[C@@H](C)C[C@H]1OCC(=O)NCc1ccccc1Cl [compound 1669] | 86 |
| CC(C)[C@@H]1CC[C@@H](C)CC1C(=O)N1c2ccccc2CC1C (stereo partly shown) [compound 1588] | 88 |
| COc1ccccc1NC(=O)CO[C@@H]1C[C@H](C)CC[C@H]1C(C)C [compound 1709] | 95 |
| CC(C)[C@@H]1CC[C@@H](C)C[C@H]1C(=O)Nc1nnc(Sc2ccnc3cc(Cl)ccc23)s1 [compound 3026] | 86 |
| CCc1ccc(-c2n[nH]cc2CN[C@@H]2C[C@H](C)CC[C@H]2C(C)C)cc1 [compound 2754] | 74 |
| CC(C)[C@@H]1CC[C@@H](C)C[C@H]1OC(=O)N1c2ccccc2CC1C (stereo partly shown) [compound 1475] | 100 |
| CC(C)[C@@H]1CC[C@@H](C)C[C@H]1NC(=O)SCc1ccccc1 [compound 2291] | 87 |
| CC(Oc1ccccc1)C(=O)N[C@@H]1C[C@H](C)CC[C@H]1C(C)C (stereo partly shown) [compound 2018] | 103 |
| CC(C)[C@@H]1CC[C@@H](C)C[C@H]1NC(=O)[C@@H]1C[C@H]1c1ccccc1 [compound 2013] | 95 |
| CC(C)[C@@H]1CC[C@@H](C)C[C@H]1NC(=O)NCCN(Cc1ccccc1)C(C)C [compound 1885] | 97 |

same assay, conditions: Table 3, Formula VII antagonists; 10 μM compound plus toxic concentration of control agonist, CHO/Trp-p8 cells, 37° C.; ATP level relative to DMSO

| SMILES | Rel. Viab. (%) at 10 μM [%] |
| --- | --- |
| c1ccc(Cc2nc(N3CCN(c4ccccn4)CC3)c3c4c(sc3n2)CCCC4)cc1 [compound 1323] | 88 |
| c1ccc(Cn2ncc3c(N4CCN(c5ccccn5)CC4)ncnc32)cc1 [compound 13] | 91 |
| OC(F)(F)Oc1ccc(Nc2nc(N3CCCCCC3)nc(N3CCN(C45CC6CC(CC(C6)C4)C5)CC3)n2)cc1 [compound 812] | 99 |
| O=C1C(c2ccc(Cl)cc2)N(C2CCCCC2)C(=O)CN1C1CCCC1 (stereo not shown) [compound 1284] | 95 |
| O=C1c2ccccc2-c2onc3c(N4CCN(C5CCCCC5)CC4)cc(Nc4ccc5c(c4)OCO5)c1c23 [compound 881] | 82 |
| CC1CCC(C(C)C)C(OCC(O)CN2CCN(Cc3ccc(Cl)cc3)CC2)C1 (stereo not shown) [compound 2496] | 82 |
| Cc1nc2sc(C(c3cccs3)N3CCN(C(c4ccccc4)c4ccccc4)CC3)c(O)n2n1 (stereo not shown) [compound 1039] | 84 |
| O=C1C(c2ccc(Cl)cc2)N(C2CCCCCC2)C(=O)CN1C1CCCC1 (stereo not shown) [compound 1283] | 100 |
| c1ccc(CNc2nc(N3CCN(c4ccccc4)CC3)nc3ccccc23)cc1 [compound 67] | 102 |
| O=[N+]([O-])c1cc(S(=O)(=O)C(F)(F)F)ccc1N1CCN(c2ccccc2)CC1 [compound 107] | 98 |
| Cc1ccc(C(c2sc3nc(C)nn3c2O)N2CCN(C(c3ccccc3)c3ccccc3)CC2)cc1 (stereo not shown) [compound 1019] | 87 |
| O=[N+]([O-])c1ccc(N2CCN(c3ccc(C(F)(F)F)cc3[N+](=O)[O-])CC2)cc1NCc1ccccc1 [compound 27] | 87 |
| Cc1nc2sc(C(c3ccc(Br)cc3)N3CCN(C(c4ccccc4)c4ccccc4)CC3)c(O)n2n1 (stereo not shown) [compound 1021] | 92 |
| COc1ccccc1N1CCN(CC(O)COC2CC(C)CCC2C(C)C)CC1.Cl.Cl (stereo not shown) [compound 36] | 87 |
| Cc1nc2sc(C(c3cccc(F)c3)N3CCN(C(c4ccccc4)c4ccccc4)CC3)c(O)n2n1 (stereo not shown) [compound 1026] | 92 |
| Cc1cc(N2CCN(Cc3ccc4c(c3)SCO4)CC2)n2nc(C)c(-c3ccc(Br)cc3)c2n1 [compound 1313] | 92 |
| Cc1ccc(C2C(=O)N(C3CCC(C)CC3)CC(=O)N2C2CCCC2)cc1 (stereo not shown) [compound 1262] | 86 |
| O=C1C(c2ccc(F)cc2Cl)N(C2CCCc3ccccc32)C(=O)CN1C1CCCCCC1 (stereo not shown) [compound 1280] | 87 |
| O=C1c2ccccc2-c2onc3c(N4CCN(C5CCCCC5)CC4)cc(Nc4ccc5c(c4)OCCO5)c1c23 [compound 882] | 86 |
| COc1cc(C(c2sc3nc(C)nn3c2O)N2CCN(C(c3ccccc3)c3ccccc3)CC2)cc(OC)c1OC (stereo not shown) [compound 1028] | 85 |
| Cc1ccc(C)n1-c1ccc(N2CCN(c3ccccc3)CC2)c([N+](=O)[O-])c1 [compound 103] | 99 |
| Cc1cc(N2CCN(c3cc(N4CCN(CCO)CC4)ccc3[N+](=O)[O-])CC2)c2ccccc2n1 [compound 74] | 81 |
